Where a SMILES comes first, the peptide text is derived from it. The star is where a group is joined. Cbz = O=C(OCc1ccccc1)*
How the values were obtained:
Assay type in all cases: cell-based
BRD4 = target: T1, BRD4 (Homo sapiens, UniProt O60885); assay: Western blot analysis of BRD4 in BL cell lines; details: overnight; for effect of proteasome inhibitor on A825-induced BRD4 degradation: inhibitor 5 μM with A825 10 nM or 100 nM, NAMALWA cells
T1 construct: endogenous in cells; host or cells: NAMALWA, Ramos, CA-46, DAUDI
Procedure: (§1) Cultured cells were collected in lysis buffer containing 40 mM HEPES (pH 7.4), 140 mM NaCl, 2.5 mM EDTA, 1% NP-40, 0.1% SDS and protease inhibitor cocktail. After 10 minutes of centrifugation (14000 rpm), supernatant was collected for protein concentration determination by BCA method and subjected for immunoblotting by standard protocol. Western blot results were visualized using Bio-Rad Clarity ECL Western Blotting Substrate on Bio-Rad ChemiDoc™ MP imaging system.
A separate set of cells were treated in the same manner, except that DMSO was used in place of the inhibitor. […] Following treatment, cell lysates were collected and analyzed by immunoblot for BRD4 and Actin.
Specifically, NAMALWA and Ramos cells were treated with 300 nM of each inhibitor for 0 hr, 0.5 hr, 1.0 hr, 2.0 hr, 4.0 hr, 7.0 hr, 24 hr, and 48.0 hr. Following treatment, cell lysates were collected and analyzed by immunoblot for BRD4 and Actin.
(§2) Following treatment, cell lysates were collected and analyzed by immunoblot for BRD4 and Actin.
as §2, §2, §2
(§3) Cells were re-seeded in fresh medium and incubated without any compound for 0 hr, 2.0 hr, 4.0 hr, 6.0 hr, and 24.0 hr. In a parallel control experiment, cells were treated in the same manner, except DMSO was used in place of inhibitor. Lysates were collected and analyzed by immunoblot for BRD4, c-Myc, and Actin.

androgen receptor (AR) = target: T2, androgen receptor (AR) (Homo sapiens, UniProt P10275); assay: AR ELISA protocol, degradation in VCaP cells; parameters: Dmax: dose or concentration left out as unconfirmed; details: 16 h
T2 construct: detects endogenous levels of total androgen receptor protein; endogenous in cells; host or cells: VCaP
T2 sequence (P10275 1-920): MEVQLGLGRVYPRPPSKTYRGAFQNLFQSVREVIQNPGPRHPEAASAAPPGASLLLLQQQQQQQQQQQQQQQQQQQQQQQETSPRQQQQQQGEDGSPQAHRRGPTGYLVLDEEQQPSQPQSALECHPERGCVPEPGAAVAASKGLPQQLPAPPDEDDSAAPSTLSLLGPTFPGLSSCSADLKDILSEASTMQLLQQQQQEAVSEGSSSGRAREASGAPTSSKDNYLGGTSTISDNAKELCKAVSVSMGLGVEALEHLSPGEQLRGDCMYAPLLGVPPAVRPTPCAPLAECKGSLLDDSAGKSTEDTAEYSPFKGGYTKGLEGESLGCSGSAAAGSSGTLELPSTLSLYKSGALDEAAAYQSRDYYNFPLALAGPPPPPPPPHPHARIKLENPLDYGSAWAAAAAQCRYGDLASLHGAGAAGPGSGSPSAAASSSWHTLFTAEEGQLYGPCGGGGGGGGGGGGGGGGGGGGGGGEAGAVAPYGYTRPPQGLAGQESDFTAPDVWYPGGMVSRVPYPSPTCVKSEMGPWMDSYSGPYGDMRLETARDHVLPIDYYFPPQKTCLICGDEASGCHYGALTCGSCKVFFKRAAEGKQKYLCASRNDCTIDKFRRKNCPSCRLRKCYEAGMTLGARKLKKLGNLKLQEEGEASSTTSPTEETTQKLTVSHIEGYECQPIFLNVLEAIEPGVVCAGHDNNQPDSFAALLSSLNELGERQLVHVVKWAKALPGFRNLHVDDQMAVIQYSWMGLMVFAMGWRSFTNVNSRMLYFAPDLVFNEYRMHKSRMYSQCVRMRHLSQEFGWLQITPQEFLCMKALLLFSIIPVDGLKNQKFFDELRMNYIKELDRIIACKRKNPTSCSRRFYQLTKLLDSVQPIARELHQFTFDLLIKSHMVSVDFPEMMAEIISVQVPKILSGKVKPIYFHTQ
Procedure: In each bioassay, cells were treated with varying amounts of compounds encompassed by the present disclosure, as shown in Table 1. The degradation of the following proteins were evaluated in this study: TANK-binding kinase 1 (TBK1), estrogen receptor α (ERα), bromodomain-containing protein 4 (BRD4), androgen receptor (AR), and c-Myc.
VCaP cells were purchased from ATCC and cultured in Dulbecco's Modified Eagle's Medium (ATCC), supplemented with 10% FBS (ATCC) and Penicillin/Streptomycin (Life Technologies). DMSO control and compound treatments (0.0001 μM-1 μM) were performed in 96-well plates for 16 h. Cells were harvested, and lysed with Cell Lysis Buffer (Catalog #9803) (20 mM Tris-HCL (pH 7.5), 150 mM NaCl, 1 mM Na2EDTA, 1 mM EGTA, 1% Triton, 2.5 mM sodium pyrophosphate, 1 mM B-glycerophosphate, 1 mM Na3VO4, 1 ug/ml leupeptin. Lysates were clarified at 16,000 g for 10 minutes, and loaded into the PathScan AR ELISA (Cell Signaling Catalog #12850). The PathScan® Total Androgen Receptor Sandwich ELISA Kit is a solid phase sandwich enzyme-linked immunosorbent assay (ELISA) that detects endogenous levels of total androgen receptor protein. An Androgen Receptor Rabbit mAb has been coated onto the microwells. After incubation with cell lysates, androgen receptor protein is captured by the coated antibody. Following extensive washing, an Androgen Receptor Mouse Detection mAb is added to detect the captured androgen receptor protein. Anti-mouse IgG, HRP-linked Antibody is then used to recognize the bound detection antibody. HRP substrate, TMB, is added to develop color. The magnitude of absorbance for the developed color is proportional to the quantity of total androgen receptor protein. Antibodies in kit are custom formulations specific to kit.

c-Myc = assay: Western blot analysis of c-Myc in BL cell lines; details: NAMALWA cells; for c-Myc protein level (immunoblot): overnight
Procedure: as §1
A separate set of cells were treated in the same manner, except that DMSO was used in place of the inhibitor. Following treatment, cell lysates were collected and analyzed by immunoblot for c-Myc and Actin.
Cells were re-seeded and incubated without inhibitor for 0 hr, 0.5 hr, 1.0 hr, 2.0 hr, 3.0 hr, 4.0 hr, and 6.0 hr. Cell lysates were then collected at the various time points and analyzed by immunoblot for c-Myc and Actin. In a parallel control experiment, NAMALWA cells were treated in the same manner, except DMSO was used in place of JQ1.
After treatment, the cells were either lysed (to evaluate the suppression of c-Myc by the inhibitors) or washed to remove the inhibitor, re-seeded, and incubated without inhibitor for 4.0 hours (to evaluate the reversibility of c-Myc suppression). Cell lysates were collected and analyzed by immunoblot for c-Myc and Actin.
Following treatment, cell lysates were collected and analyzed by immunoblot for BRD4, c-Myc and Actin.
as §3

PARP = PARP cleavage immunoblot in BL cells; details: 48 hours; A825 0.1 uM, JQ1 and OTX15 up to 10.0 μM; Ramos cells
Procedure: as §1
Lysates were collected and analyzed by immunoblot for PARP cleavage with actin as loading control.

[1] = system: BL cell lines (NAMALWA, Ramos, CA-46, Daudi); assay: Proliferation assay (CellTiter-Glo) in BL cell lines; details: pomalidomide alone up to 10 μM; 72 hours
Procedure: To assess the effect of the inhibitors on proliferation, cells (50,000/100 μl) were seeded in 96-well tissue culture plates followed by addition of compound at the indicated concentration. After 72 hours, 100 μL per well of reconstituted CellTiter-Glo (CTG) reagent (#G7572 from Promega) was added and read on Cytation 3 imaging reader from BioTek. Relative cell growth was determined by comparing assay readings of treated cells with control DMSO treated cells.
Specifically, NAMALWA, Ramos, CA-46, and Daudi cell lines were seeded at 50,000 cells/100 μl in 96-well plates. […] Following treatment, the relative proliferation of the samples was determined by CTG assay 72 hours following treatment.
Cells were re-seeded in fresh medium and incubated without any compound for 0 hr, 24.0 hr, and 48.0 hr. In a parallel control experiment, cells were treated in the same manner, except DMSO was used in place of inhibitor. Following treatment, the relative proliferation of the samples was determined by CTG assay.
In a parallel control experiment, cells were treated in the same manner, except DMSO was used in place of inhibitor. Following treatment, the relative proliferation of the samples was determined by CTG assay.
In a parallel experiment, cells were treated in the same manner, except DMSO was used in place of pomalidomide.

CC(C)C[C@H](NC(=O)[C@H](CCc1ccccc1)NC(=O)CN1CCOCC1)C(=O)N[C@@H](Cc1ccccc1)C(=O)N[C@@H](CC(C)C)C(=O)[C@@]1(C)CO1 [Carfizomib]
effect of proteasome inhibitor on A825-induced BRD4 degradation (BRD4): completely prevented BRD4 degradation

CC1(C)C(=O)N(c2ccc(C#N)c(C(F)(F)F)c2)C(=S)N1c1ccc(OCCOCCNc2cccc3c2C(=O)N(C2CCC(=O)NC2=O)C3=O)cc1 (stereo not drawn) [Compound 7, 4-(3-(4-(2-(2-((2-(2,6-dioxopiperidin-3-yl)-1,3-dioxoisoindolin-4-yl)amino)ethoxy)ethoxy)phenyl)-4,4-dimethyl-5-oxo-2-thioxoimidazolidin-1-yl)-2-(trifluoromethyl) benzonitrile]
Dmax at 1 µM (androgen receptor (AR)): 10 to 30%

CC1(C)C(=O)N(c2ccc(C#N)c(C(F)(F)F)c2)C(=S)N1c1ccc(OCCOCCOCCNc2cccc3c2C(=O)N(C2CCC(=O)NC2=O)C3=O)cc1 (stereo not drawn) [Compound 8, 4-(3-(4-(2-(2-(2-((2-(2,6-dioxopiperidin-3-yl)-1,3-dioxoisoindolin-4-yl)amino)ethoxy)ethoxy)ethoxy)phenyl)-4,4-dimethyl-5-oxo-2-thioxoimidazolidin-1-yl)-2-(trifluoromethyl) benzonitrile]
Dmax at 1 µM (androgen receptor (AR)): 10 to 30%

CC1(C)C(=O)N(c2ccc(C#N)c(C(F)(F)F)c2)C(=S)N1c1ccc(OCCCOCCOCCNc2cccc3c2C(=O)N(C2CCC(=O)NC2=O)C3=O)cc1 (stereo not drawn) [Compound 9, 4-(3-(4-(3-(2-(2-((2-(2,6-dioxopiperidin-3-yl)-1,3-dioxoisoindolin-4-yl)amino)ethoxy)ethoxy)propoxy)phenyl)-4,4-dimethyl-5-oxo-2-thioxoimidazolidin-1-yl)-2-(trifluoromethyl) benzonitrile]
Dmax at 1 µM (androgen receptor (AR)): 10 to 30%

CC1(C)C(=O)N(c2ccc(C#N)c(C(F)(F)F)c2)C(=S)N1c1ccc(OCCCCOCCOCCOCCNc2cccc3c2C(=O)N(C2CCC(=O)NC2=O)C3=O)cc1 (stereo not drawn) [Compound 10]
Dmax (androgen receptor (AR)): 31 to 50%

CC1(C)[C@H](NC(=O)c2ccc(OCCCCCOCCCNc3cccc4c3C(=O)N(C3CCC(=O)NC3=O)C4=O)cc2)C(C)(C)[C@H]1Oc1ccc(C#N)c(Cl)c1 (stereo partly drawn) [Compound 11]
Dmax at 1 µM (androgen receptor (AR)): > 50%

CC1(C)C(=O)N(c2ccc(C#N)c(C(F)(F)F)c2)C(=S)N1c1ccc(OCCCOCCOCCOCCNc2cccc3c2C(=O)N(C2(C)CCC(=O)NC2=O)C3=O)cc1 (stereo not drawn) [Compound 12, 4-(4,4-dimethyl-3-(4-((1-(2-(3-methyl-2,6-dioxopiperidin-3-yl)-1,3-dioxo-2,3-dihydro-1H-isoindol-4-yl)-4,7,10-trioxa-1-azatridecan-13-yl)oxy)phenyl)-5-oxo-2-sulfanylidene-imidazolidin-1-yl)-2-(trifluoromethyl) benzonitrile]
Dmax (androgen receptor (AR)): 10 to 30%

CC1(C)C(=O)N(c2ccc(C#N)c(C(F)(F)F)c2)C(=S)N1c1ccc(-c2ccc(OCCCCCNc3cccc4c3C(=O)N(C3CCC(=O)NC3=O)C4=O)cc2)cc1 (stereo not drawn) [Compound 13, 4-(3-(4-(4-((5-((2-(2,6-dioxopiperidin-3-yl)-1,3-dioxo-2,3-dihydro-1H-isoindol-4-yl)amino)pentyl)oxy)phenyl)phenyl)-4,4-dimethyl-5-oxo-2-sulfanylidene-imidazolidin-1-yl)-2-(trifluoromethyl) benzonitrile]
Dmax at 1 µM (androgen receptor (AR)): > 50%

Cc1sc2c(c1C)C(c1ccc(Cl)cc1)=N[C@@H](CC(=O)OC(C)(C)C)c1nnc(C)n1-2 [JQ1]
c-Myc protein level (immunoblot) (c-Myc; 100 nM to 1000 nM): significant suppression | time for c-Myc protein to return to control level after inhibitor removal (c-Myc; 1000 nM 24 h, washout): ≤ 3.0 h | c-Myc protein level (immunoblot) (c-Myc; up to 3000 nM): neither JQ1 nor OTX-15 was able to completely suppress c-Myc expression | apoptosis by PARP cleavage (PARP): significantly higher dose

CC(C)C[C@@H](C=O)NC(=O)[C@H](CC(C)C)NC(=O)[C@H](CC(C)C)NC(=O)OCc1ccccc1 [MG132] (Cbz-Leu-Leu-Leu-aldehyde)
effect of proteasome inhibitor on A825-induced BRD4 degradation (BRD4): completely prevented BRD4 degradation

Cc1sc2c(c1C)C(c1ccc(Cl)cc1)=N[C@@H](CC(=O)Nc1ccc(O)cc1)c1nnc(C)n1-2 [OTX-15]
c-Myc protein level (immunoblot) (c-Myc; 100 nM to 1000 nM): significant suppression | c-Myc protein level (immunoblot) (c-Myc; up to 3000 nM): neither JQ1 nor OTX-15 was able to completely suppress c-Myc expression | apoptosis by PARP cleavage (PARP): significantly higher dose

Nc1cccc2c1C(=O)N(C1CCC(=O)NC1=O)C2=O (stereo not drawn) [Pomalidomide, pomalidomide, reference compound]
effect on BL cell proliferation [1]: did not result in a significant effect on the proliferation | BRD4 protein level (immunoblot) (BRD4; pomalidomide 10 μM alone, NAMALWA and Ramos cells): not affected

Source: patent publication US11834460B2, “Imide-based modulators of proteolysis and associated methods of use” (YALE UNIVERSITY, priority 2018, dated 2023)
